The subject of data set [1] is mast cell degranulation. Briefly: Serotonin release assay (inhibition of mast cell degranulation). The class given is cell-based. Also on record: INCORP / TOTAL: unit not given here. The settings on record: 50 μM; for RELEASE-SPONT: average corrected for spontaneous release; for AVERAGE % RELEASE: average of duplicates; for inhibition at 50 µM: Mast cell; for % RELEASE / INCORP / RELEASE / RELEASE X2 / TOTAL: duplicate wells. The method, boiled down:
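Cultured mast cells loaded with 3H-serotonin and sensitized with anti-DNP IgE for 18 h at 37 °C, then triggered with 40 ng/ml DNP-BSA for 45 min with compound in PIPES isotonic buffer pH 7.1.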

Data set [2] concerns transformed cells (Ras 3T3) and normal 3T3 cells. The data set can be described thus: Cytotoxicity in transformed cells (Ras 3T3) versus normal 3T3 cells. The format is cell-based. Particulars: LD50 comparison; FIG. 17. How it is done: Each inventive compound is investigated for cytotoxicity to determine appropriate doses for biological activity assays and to prevent cytotoxic reactions in in vitro assays when characterizing activity. Cells (e.g., NIH-3T3, Ras transformed 3T3 cells, malignant melanoma LD2 cells, etc.) are added to microtiter plates and drug is added about two days after plating. Cell viability is determined using a fluorescent viability stain (e.g., 2',7'-bis-(2-carboroxyethyl)-5-(and -6)-carboxyfluorescein acetoxymethyl ester, BCECF excitation 488 nm and emission 525 nm) 24, 48 or 72 hours after addition of the drug.
This example illustrates a comparison of cytotoxicity determinations for CT1534 and CT1539 in transformed cells (Ras 3T3) and in normal 3T3 cells to determine the in vitro LD50 value in both cell types and to look for differential cytotoxicity effects between the cell types.

Data set [3] has as its system CMV promoter activity in transformed (adenovirus) cells. Briefly: CMV promoter assay (gene transcription and translation; cytotoxicity in transformed cells). The class given is cell-based. An outline of the steps: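 Reporter assay in adenovirus-transformed cells, reading CMV promoter-driven gene transcription and translation; activity reflects cytotoxic inhibition of cellular protein synthesis machinery.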

For data set [4], the system named is second messenger pathway enzymes in P388 cells (murine monocyte/macrophage line). Briefly: Changes in lipid mass (DAG, PA) in P388 cells after signal stimulation. The class given is cell-based. The settings on record: 30 second time point, FIGS. 20-22. How it is done:
FIGS. 20-22 illustrate the effect of one inventive compound (CT1534) on the substates and products of the present second messenger pathway. Various concentrations of CT1534 were incubated with P388 cells (a murine monocyte/macrophage line) and changes in lipid mass determined at 0 time, 30 seconds and 60 seconds after signal stimulation. FIGS. 20-22 show the 30 second time point for two DAG peaks and a PA peak.
This example illustrates the effect of one inventive compound (CT1534) on the substates and products of the present second messenger pathway. Various concentrations of CT1534 were incubated with P388 cells (a murine monocyte/macrophage line) and changes in lipid mass determined at 0 time, 30 seconds and 60 seconds after signal stimulation. FIGS. 20-22 show the 30 second time point for two DAG peaks and a PA peak.

Data set [5] relates to human stromal cells. The data set can be described thus: PDGF-stimulated proliferation of human stromal cells. The settings on record: 50 ng/ml PDGF-BB; drug one hour prior; FIGS. 15 and 16; read-out: IC50, stromal cell proliferation. The format is cell-based. How it is done:
(§1) This assay is an in vitro model for restenosis and treatment of atherosclerosis and coronary artery disease. Stromal cells were starved in serum-free media for one day and then stimulated with 50 ng/ml PDGF-BB. The drugs were added at the indicated concentrations one hour prior to PDGF stimulation. Tritiated thymidine was added for one day at the time of PDGF stimulation and the cells were harvested and counted by liquid scintillation counting 24 hrs later.
Another assay for measuring activity of the inventive compounds involves determining PDGF (platelet derived growth factor) proliferative response using human-derived stromal cells. […] Two to three days later, the stromal cells are starved in serum-free media. Twenty four hours later, the cells are treated with a stimulating agent, such as PDGF-AA, PDGF-BB or basic FGF (fibroblast growth factor) with or without IL-1α or TNF, and tritiated thymidine. Cell proliferation is determined by liquid scintillation counting.
as §1

Data set [6] has as its system murine thymocyte. The data set can be described thus: Murine thymocyte stimulated by ConA and IL-2 (T cell immune suppression). The class given is cell-based. Particulars: FIGS. 8 and 9. How it is done:
A thymocyte costimulator assay is conducted to evaluate the inventive compounds to inhibit activation and proliferation of thymocytes caused by stimulation with Con A and interleukin-1 (IL-1), or […]. Thymuses are obtained from mice (e.g., female Balb/C mice) and the thymuses are removed and dissociated into culture media (e.g., RPMI 1640 without serum supplementation). The dissociated thymus tissue and cell suspension is transferred to centrifuge tubes and allowed to settle, washed with HBSS and resuspended in serum-supplemented culture media (e.g., RPMI 1640 with 10% fetal calf serum). Any contaminating red cells are lysed, and viable cells are resuspended and counted. Thymocytes are plated (e.g., 96-well plates at a density of 2×10^5 cells/well) and a stimulating agent, such as Con A, IL-1 (e.g., IL-1α) or IL-2 is added to the well. The cells are incubated for 4 days at 37° C. On the fourth day, the cells are pulsed with tritiated thymidine and cell proliferation determined. Inventive compounds are added at the time of stimulating agent addition.
A third assay measures an ability of an inventive compound to inhibit IL-2-induced proliferation of murine thymocytes. Thymus glands are obtained from 4-6 week old mice and plated as a single cell suspension into flat bottomed wells in RPMI 1640 medium supplemented with 10% fetal calf serum. The inventive compounds are added to appropriate wells and the cells are incubated for 1-2 hrs. Concanavilin A (ConA, 0.25 mg/ml) and […] (20 ng/ml) are added and the plates are incubated for 4 days. Cell proliferation is determined as above.
FIG. 8 compares T cell immune suppression data of thirteen inventive compounds by comparing their IC50 values in a murine thymocyte stimulated by ConA and IL-2 in vitro model.

In data set [7] the test system is murine lymph node cell (T cell) proliferation. Briefly: Murine lymph node cell proliferation stimulated by antigen. The class given is cell-based. Particulars: Mus musculus, 2 h, drug two hours prior, FIG. 11. The source says:
A second immune suppression assay measures a T cell component to the immune reaction. Lymph nodes contain a mixture of cells including T cells, B cells and macrophages. Although the proliferating cells in this assay are T cells, the response is also dependent upon an antigen presenting cell such as a macrophage as well as an elaboration of various immunoregulatory cytokines. Murine T cells will proliferate in vitro in response to a soluble o protein antigen if they are first primed with the antigen in vivo. In vivo priming involves emulsifying the antigen (chicken ovalbumin or OVA) in complete Freunds adjuvant and injecting […] of OVA into both hind footpads of adult Balb/c mice. Fourteen days later the draining lymph nodes (popliteal) are removed and a single cell suspension is prepared in RPMI 1640 supplemented with 10% fetal calf serum. The lymph node cells (200,000) are plated into flat-bottom wells and OVA ([…]) and/or drug is added to appropriate wells and incubated for 5 days. Proliferation is determined and IC50's calculated as above.
This example illustrates the effects of four inventive compounds on inhibition of murine lymph node cell proliferation stimulated by antigen. This assays uses murine T cells that proliferate in vitro in response to a soluble protein antigen that is first used to prime the T cells in vivo. […]

For data set [8], the system named is PBMC in mixed lymphocyte assay culture. The data set can be described thus: Percent viable cells in mixed lymphocyte assay culture after six days. The format is cell-based, human.
In data set [9] the test system is PBMC (peripheral blood mononuclear cells). Briefly: Two-way mixed lymphocyte reaction (MLR), proliferation of PBMC to allogeneic stimulation. The class given is cell-based, human. The source says:
Various in vitro assays can be used to measure effects of the inventive compounds to module immune activity and have antitumor activity using a variety of cellular types. For example, a mixed lymphocyte reaction (MLR) provides a valuable screening tool to determine biological activity of each inventive compound. In the MLR, PBMCs (peripheral blood mononuclear cells) are obtained by drawing whole blood from healthy volunteers in a heparinized container and diluted with an equal volume of hanks balanced salt solution (HBSS). This mixture is layered on a […] density gradient, such as a Ficoll-Hypaque® gradient (specific gravity 1.08), and centrifuged at 1000×g for 25 minutes at room temperature or cooler. PBMC are obtained from a band at a plasma-Ficoll interface, separated and washed at least twice in a saline solution, such as HBSS. Contaminating red cells are lysed, such as by ACK lysis for 10 min at 37° C., and the PBMCs are washed twice in HBSS. The pellet of purified PBMCs is resuspended in complete medium, such as RPMI 1640 plus 20% human inactivated serum. Proliferative response of PBMC to allogeneic stimulation is determined in a two-way MLR performed in a 96-well microliter plate. Briefly, approximately 10^5 test purified PBMC cells in […] complete medium are co-cultured with approximately 10^5 autologous (control culture) or allogeneic (stimulated culture) PBMC cells, wherein the allogeneic cells are from HLA disparate individuals. Varying doses of compounds (drug) are added at the time of addition of cells to the microtiter plate. The cultures are incubated for 6 days at 37° C. in a 5% CO2 atmosphere. At the conclusion of the incubation tritiated thymidine is added (for example, […] of 40 to 60 Ci/mmole) and proliferation determined by liquid scintillation counting.
This example illustrates a mixed lymphocyte reaction assay of inventive compounds by showing the IC50 value of each compound in this assay and a dose response of several compounds to illustrate an IC50 determination.

Structures are written as SMILES. Where “and” joins values, the source holds several entries; their conditions need not be identical. Identical values can stand only once. Where only a bound is given, the exact number is not on record here.

Broadly, the inhibition is the change of the read-out against control, counted positive when it falls. `C=CCCCCn1c(=O)c2c(ncn2C)n(C)c1=O` [CT1539, 1-(5-hexenyl)-3,7-dimethylxanthine]: in data set [1] (Table 4), the RELEASE-SPONT stood at 5.15%, the “AVERAGE % RELEASE” value was found to be 21.71% and the inhibition at 50 µM stood at 35.8%. Moreover, the “differential cytotoxicity, transformed vs normal cells” value in [2] is recorded as “equally cytotoxic for both cell types”. This compound had an IC50 in data set [3] of over 500 µM.
For `C=CCCCCCn1c(=O)c2c(ncn2C)n(C)c1=O` [CT1534, 1-(6-heptenyl)-3,7-dimethylxanthine], in data set [1] (Table 4), the RELEASE-SPONT stood at 5.47%, the “AVERAGE % RELEASE” value was determined as 22.02% and testing at 50 µM gave an inhibition of 31.9%. The “differential cytotoxicity, transformed vs normal cells” value in data set [2] is “much more cytotoxic for the transformed cell than the normal cell”. Further, in data set [3], the IC50 was over 500 µM. Further, the “plateau concentration for inhibition of second messenger signaling” value in [4] (DAG and PA peaks) is listed as “around 10 μM”. Moreover, in data set [4], the “inhibition of second messenger signaling enzymes” value is on record as “inhibits the enzymes involved in second messenger signaling to an inflammatory stimulus in a dose-response fashion”.
For the compound `C=CCCCCCCCn1c(=O)c2c(ncn2COC(=O)C(C)(C)C)n(C)c1=O` [CT1411, 1-(8-nonenyl)-3-methyl-7-methylpivaloylxanthine], in [1] (Table 4), the “% INHIBITION” value worked out at 87.89%; the RELEASE-SPONT came to 0.97%; the “AVERAGE % RELEASE” value came to 17.53%; the “% RELEASE” value was 16.79% and 18.27%. Also, in data set [1] (Table 4), the INCORP is 24627 and 24663; the RELEASE is 2484 and 2756; the “RELEASE X2” value is 4968 and 5512; the TOTAL was 29595 and 30175. Further, in [1] (Table 5), the “% INHIBITION” value turned out to be 87.89%. The IC50 in data set [5] is under 10 µM. Also, the “T cell immune suppressing activity” value in [6] is “potent immune suppressing activity”.
As for `C=CCCCCCCCCn1c(=O)c2c(ncn2C)n(C)c1=O` [CT1563, 1-(9-Decenyl)-3,7-dimethylxanthine], in [1] (Table 4), the RELEASE-SPONT worked out at 7.43%, the “AVERAGE % RELEASE” value amounted to 23.98% and the inhibition at 50 µM was determined as 7.39%. In data set [7], this compound registered an IC50 of about 15 µM. The “T cell immune suppressing activity” value in [6] was “potent immune suppressing activity”. In addition, the IC50 in data set [3] was found to be 50 µM. Moreover, the “cytotoxicity in mixed lymphocyte assay culture” value in [8] (100 μM, six days of culture) is “the most cytotoxic at 100 μM”. For the same compound, the “therapeutic window” value in data set [8] (cytotoxicity at 100 μM vs MLR IC50) is “significant therapeutic window”. In addition, the “mixed lymphocyte reaction activity” value in [9] (FIGS. 1 and 2) is reported as “showed activity within dose ranges achievable in vivo”.
Consider `C=CCCCCCCCCCn1c(=O)c2c(ncn2COC(=O)C(C)(C)C)n(C)c1=O` [CT1403, 1-(10-undecenyl)-3-methyl-7-methylpivaloylxanthine], for which, in [1] (Table 4), the “% INHIBITION” value came to 84.23%; the RELEASE-SPONT was 1.26%; the “AVERAGE % RELEASE” value is 17.82%; the “% RELEASE” value was 17.37% and 18.27%. In data set [1] (Table 4), the INCORP is 23246 and 25691; the RELEASE was 2443 and 2872; the “RELEASE X2” value was 4886 and 5744; the TOTAL is 28132 and 31435. The “% INHIBITION” value in data set [1] (Table 5) was determined as 84.23%. In addition, the IC50 in [5] is under 10 µM. Besides, the IC50 in [9] (FIGS. 3 and 4) came out at 10 µM.

The values above are taken from patent US5521315A, “Olefin substituted long chain compounds” (priority 1993, dated 1996).
